Results: PMC10111423, “Antimalarial Imidazopyridines Incorporating an Intramolecular Hydrogen Bonding Motif: Medicinal Chemistry and Mechanistic Studies” (ACS Infectious Diseases, 2023)
Entries after “also recorded” stand apart in the source; their conditions may differ.

Assays:
[1] = Metabolite identification in mouse liver microsomes; format: in vitro ADME; conditions: NADPH-dependent
Protocol: started by addition of NADPH (1 mM) as cofactor and shaken for 30 minutes at 37 °C. The
reactions were then quenched by adding 300 µL of ice-cold acetonitrile containing internal
standard (carbamazepine, 0.0236 µg/mL) and centrifuged. The supernatant was transferred to
a fresh 96-well plate and analysed by LC-MS/MS (Agilent Rapid Resolution HPLC, AB
SCIEX 4500 MS). The relative loss of parent compound over time was monitored and plots
(concentration vs. time) were prepared per compound to determine the first order rate constant
for compound depletion. This was in turn used to calculate half-life, in vitro intrinsic clearance
and in vivo hepatic extraction ratio.6
Metabolite Identification Studies
The test compound (10 µM) was incubated at 37 °C in a solution containing 1 mg/ml
microsomes (MLM, male mouse CD1, Lot No. 1510043, Xenotech), magnesium chloride (5
mM) and NADPH (1 mM) in sodium phosphate buffer (100 mM, pH 7.4) for 60 minutes while
shaking. The samples were then prepared by ice-cold acetonitrile precipitation, centrifuged,
and filtered for LC-MS/MS analysis.
Controls containing all the sample constituents (not incubated), and in which NADPH,
microsomes or the test compound were individually excluded were also prepared and handled
similarly to the test sample. Verapamil (10 µM) was incubated concomitantly as a positive
Fluorescence Live-cell Microscopy […]

P. falciparum parasites = experiment: Cellular heme fractionation (heme speciation) assay; format: cell-based, Plasmodium falciparum
Protocol: At this juncture, it is noteworthy that a true hemozoin inhibitor causes a dose-dependent increase in “free” heme and a corresponding decrease in hemozoin. page 23: Table S2: Concentrations of fluorescent dyes used for confocal imaging of P. falciparum with respective excitation lasers and emission filter settings. Dye Concentration Excitation Laser Emission filter DRAQ 5 500 nM 580 nm 600-630 nm LysoTracker 100 nM 561 nm 575-630 nm Nile Red 100 nM 561 nm 575-630 nm ER-Tracker 100 nM 561 nm 575-630 nm MitoTracker 100 nM 561 nm 650-710 nm 1.3-NBD 50 nM 420 nm 500-550 nm 3.14-NBD 75 nM 420 nm 500-550 nm Heme Fractionation Assay […] The heme fractionation assay was performed according to the methods previously described.9 After the IC50 of the target compounds was determined, a counting plate was prepared by adding 10 μL of the isolated washed trophozoites to the corresponding wells of a flat-bottomed 96-well plate. […] The hemocytometer determined cell counts for these six samples were statistically compared to the cell counts determined by flow cytometry to test for agreement. 10 μL of cells from the counting plate were loaded onto a bright-lined hemocytometer, and five large squares were counted after 10 minutes of settling. The concentration of cells in each well of the plate was determined using equation 1: CH 1⁄4 […] […] Typically, 10,000 events were counted for each sample. […]

Number of metabolites identified [1]: 4
Structure (SMILES): CCN(CCNc1cc2[nH]c(-c3cccc(C(F)(F)F)c3)nc2cn1)Cc1ccc(Cl)cc1O [Compound 14, 5-Chloro-2-((ethyl(2-((2-(3-(trifluoromethyl)phenyl)-1H-imidazo[4,5-c]pyridin-6-yl)amino)ethyl)amino)methyl)phenol]
Levels of hemozoin (Hz) Fe (P. falciparum parasites; between 0.5–2× IC50): significant decrease; also recorded: decreased | Levels of "free" heme Fe (P. falciparum parasites; increasing concentrations of compound): no statistically significant change; also recorded: no statistically significant effect
